# Measurements taken from patent US9539223B2, “Methods for treating bacterial infections” (Neoculi Pty Ltd., priority 2013, dated 2017).
# Values joined by “and” are separate entries in the source; they are usually repeats but may differ in a detail not shown here. Equal values may be shown once.
# Key:
# [1] = tested on: S. pneumoniae strain D39; experiment: Micro-broth dilution time kill studies; format: cell-based, Streptococcus pneumoniae
# Protocol: Negative dilution controls were subtracted from the median growth value to obtain a suitable indicator of overall bacterial production. The 96-well tray was incubated at 37° C. in 5% CO2 and read every 2 hrs for the first 12 hrs followed by final reads at 24 and 48 hrs at 600 nm.
# [2] = tested on: S. aureus KC01; experiment: Kill kinetics assay, S. aureus KC01; format: cell-based, Staphylococcus aureus
# Protocol: S. aureus KC01 and E. faecalis USA01, not determined to be MRSA or VRE, respectively, were grown overnight on Columbia SBA at 37° C. A few colonies of bacteria were then suspended in CAMHB (cation-adjusted Mueller Hinton broth) and adjusted to OD600 of 0.08 to 0.10. The bacterial suspension was diluted 1:10. […] The tubes were incubated at 37° C., with constant shaking. In order to determine the number of viable bacteria present at various time points, a 100 μL aliquot was removed from each tube and diluted. Then, 100 μL of each dilution were spread onto colony count agar, in duplicate, and incubated for 48 h at 37° C. After 24 h the numbers of colonies present on each plate were counted and therefore the number of viable bacteria present in the original suspension enumerated. Plates were re-checked after 48 hours.
# [3] = tested on: S. pneumoniae strain D39; experiment: Macro-broth dilution time kill studies; format: cell-based, Streptococcus pneumoniae
# Protocol: Bacterial suspensions and working antibiotic stocks were prepared as described above. [For preparing macro-broth dilutions, 20 ml tubes were filled each with 9 mls of 4% LHB:CAMHB. 9 mls of a working antimicrobial stock was diluted 1:2 when added to one of the tubes, and then serial diluted down from a high to low concentration of antimicrobial. 1 ml of S. pneumoniae bacterial suspension was added to the appropriate tubes, including the positive control. […] At every 2-3 hrs during the first 12 hrs of growth and then at 24 hrs and 48 hrs, 50 μL of each bacterial suspension was spread plated onto HBA and incubated at 37° C. with 5% CO2 for 16-24 hrs.]
# Cultures were incubated at 37° C. in 5% CO2 with gentle manual tilting every 10 mins for the first 12 hrs. Viable counts from 50 μL aliquots of each concentration were read following incubation at 37° C. in 5% CO2 for 24 hrs. The pH of each sample was measured at specific time points using pH indicator strips. Confluent growth was defined when more than 1000 colonies were counted per plate. A bactericidal effect was defined as a 3-log 10-unit reduction (99.9%) of the original cell suspension determined at 24 hrs for each concentration.
# [4] = tested on: Staphylococcus spp. Strain MK1; experiment: Checkerboard synergy study, Staphylococcus spp. MK1; format: cell-based
# Protocol: Firstly, the MIC of each antibiotic alone was determined in accordance to CLSI standard guidelines.
# According to the checkerboard guidelines, Synergy (S) was defined as an FICI<0.5. No effect (NE) was defined as 0.5<FICI<4. Antagonism (A) was defined as a 4<FICI.
# [5] = tested on: Staphylococcus pseudintermedius; experiment: MBC testing (CLSI), S. pseudintermedius isolates; format: cell-based
# Protocol: After the MICs were determined, the minimum bactericidal concentrations were performed to determine if these compounds are bacteriostatic or bacteriocidal.
# [6] = tested on: S. pneumoniae; experiment: MBC, pneumococcal isolates; format: cell-based, Streptococcus pneumoniae; details: isolate WCH16
# Protocol: [Micro-broth dilutions and 96-well trays are prepared by the following method: 90 μL of 4% LHB: CAMHB is aliquotted into all wells using a multichannel pipette. 90 μl of working antimicrobial stocks were no serial diluted down the tray by a 1:2 dilution. Negative broth controls and dilution control were taken into account when planning the set up of a 96-well tray.] 10 μL of bacterial suspension was then added to the appropriate wells in the 96 well tray. Appropriate positive (no antimicrobial), negative (no antimicrobial or bacteria) and negative dilution (a serial dilution control of antimicrobial and broth) controls were included in each assay. […] The MBC was determined by a 99.95% inhibition of S. pneumoniae, taking into account the dilution factor. MICs and MBCs were determined in quadruplicate and the mode was taken as the representative value. The MIC50, MIC90 and MIC range and MBC50, MBC90 and MBC range were determined according to CLSI standards. The MIC50 and MIC90, or MBC50 and MBC90, are defined by the lowest concentrations which, when all the MICs and MBCs of the isolates are arranged from lowest to highest, inhibited the 50th and 90th percentile of the total amount of isolates, respectively.
# [7] = tested on: E. faecalis USA01; experiment: MBC test (CLSI), non-VRE E. faecalis isolate
structure (smiles),measurement,setting,value
"N=C(N/N=C/c1ccc(Cl)cc1)N/N=C/c1ccc(Cl)cc1 [NCL812, 1,2-bis[(E)-(4-chlorophenyl)methylideneamino]guanidine]",effect of choline chloride in the media on growth,"[1]; 5% choline chloride, 48 hour, compared to positive and growth controls",no significant difference in growth
same,concentrations resulting in no bacterial growth for 48 hrs,[1]; D39,≥ 16 µg/mL
same,sub-inhibitory concentrations (growth similar to unexposed controls over 48 hour),[1]; D39,≤ 2 µg/mL
same,entered a log phase of growth at,[1]; D39 treated with ≦4 μg/ml NCL812,6 hrs
same,reduction in bacterial numbers from initial numbers,[2]; 2 h time point,≥ 2.5 log10
same,reduction in bacterial numbers in comparison to the control,[2]; 2 h time point,> 3 log10
same,reduction in bacterial numbers,[2]; 6 h incubation,≥ 2 log10
same,numbers of bacteria compared to the control,[2]; after 24 h,not significantly different to the control
same,growth,[3]; 2 μg/ml NCL812,Consistent confluent growth
same,appeared to be inactivated at,"[3]; 4 μg/ml and 8 μg/ml, post-exposure",11 h
same,time to eliminating bacterial growth,[3]; between 16 μg/ml and 64 μg/ml NCL812,≤ 8 h
same,MIC,"[4]; read-out: NCL812 MIC Alone, Staphylococcus spp. Strain MK1",2 µg/mL
same,NCL812 MIC With Antibiotic,[4]; with Penicillin G,2 µg/mL
same,NCL812 MIC With Antibiotic,[4]; with Sulfamethoxazole,1 µg/mL and 2 µg/mL
same,activity based on minimal bactericidal concentrations (MBC),[5],bactericidal
same,MBC,[6],autolysis
same,MBC test: Number of Bacteria Growing after 24 hours per ml of sample,[7]; 4 μg/ml,488 CFU/ml
same,MBC test: growth on Sheep Blood Agar,[7]; 4 μg/ml,+
same,MBC test: growth on Sheep Blood Agar,[7]; 8 μg/ml,+
same,MBC test: growth on Sheep Blood Agar,[7]; 16 μg/ml,+
same,MBC test: Number of Bacteria Growing after 24 hours per ml of sample,[7]; 32 μg/ml,7 CFU/ml
same,MBC test: growth on Sheep Blood Agar,[7]; 32 μg/ml,+
same,MBC test: Number of Bacteria Growing after 24 hours per ml of sample,[7]; 64 μg/ml,1 CFU/ml
same,MBC test: growth on Sheep Blood Agar,[7]; 64 μg/ml,+
same,MBC test: growth on Sheep Blood Agar,[7]; […],+
